In US20210179578A1, “OX1 ANTAGONISTS” (Heptares Therapeutics Limited, priority 2017, published 2021):

What follows are molecules tested against T1, human OX2 receptor (Homo sapiens, UniProt O43614) (assay: [3H]-radioligand binding assay, OX2). Conditions: [3H]-radioligand binding, human OX2 membranes; read-out: pKi average OX2 (converted).
T1 sequence (O43614 1-444): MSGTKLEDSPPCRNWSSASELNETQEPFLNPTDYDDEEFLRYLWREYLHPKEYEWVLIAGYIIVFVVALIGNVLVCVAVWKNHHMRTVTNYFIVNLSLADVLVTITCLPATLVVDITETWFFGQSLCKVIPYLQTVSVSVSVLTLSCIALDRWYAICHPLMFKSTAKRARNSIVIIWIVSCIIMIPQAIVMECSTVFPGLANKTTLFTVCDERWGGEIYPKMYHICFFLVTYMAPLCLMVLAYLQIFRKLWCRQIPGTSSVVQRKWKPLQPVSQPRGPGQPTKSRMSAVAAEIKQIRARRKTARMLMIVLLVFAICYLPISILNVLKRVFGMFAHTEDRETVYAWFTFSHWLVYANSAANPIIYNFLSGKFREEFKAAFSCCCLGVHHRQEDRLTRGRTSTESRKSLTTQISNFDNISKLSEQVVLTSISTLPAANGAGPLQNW
Design: made in house; host or cells: SF21 insect cells (baculovirus; P0 virus made in SF9)
Excerpt: Cloning, Baculovirus generation, large-scale infection of SF21 cells and membrane preparation. Human OX1 or OX2 receptor were cloned into Invitrogen's (ThermoFisher Scientific, UK) Bac-to-Bac Baculovirus Expression System. P0 baculovirus was generated by transfecting SF9 cells with bacmid DNA using Cellfectin® II transfection reagent (ThermoFisher Scientific, UK, Catalog number 10362-100). Following P0 generation P1 virus was then generated ready for large scale infection and membrane preparation. SF21 cells were grown in expression medium ESF921 (Expression Systems, USA, catalog number 96-001-01) supplemented with 10% heat-inactivated FBS and 1% Pen/Strep and were infected at a cell density of 2.5×10^6 cells/mL and a multiplicity of infection of 1.0 for both human OX1R and OX2R. Incubation was carried out at over 48 h in a shaking incubator set at 27° C. The cell culture was then centrifuged at 2,500 rcf for 10 min at 4° C. The pellets were resuspended in cold PBS supplemented with Roche's Complete EDTA-free protease inhibitor cocktail tablets (Roche Applied Sciences, catalog number 05056489001), 1 mM PMSF and 1 mM EDTA. The resuspended cell paste was then centrifuged at 3,273 rcf for 12 min at 4° C. The supernatant was discarded and the pellet frozen at −80° C. The cell pellet from a 4 L culture was resuspended in buffer containing 50 mM HEPES pH 7.5, 150 mM NaCl, 8 Roche EDTA-Free protease inhibitor cocktail tablets and 1 mM PMSF. The suspension was left stirring at rt for 1 h and then homogenised for 90 s at 9,500 rpm using a VDI 25 (VWR, USA) homogeniser. The cells were then lysed using a Microfluidiser processor M-110L Pneumatic (Microfluidics, USA) at 60 PSI and membranes collected by ultracentrifugation at 204.7 k×g for 1 h. The supernatant was discarded and the pellet was resuspended and homogenised in 90 s at 9,500 rpm in 50 mL (25 mL for each 2 L culture) of buffer containing 50 mM Hepes pH 7.5, 150 mM NaCl, 3 Roche EDTA-free protease inhibitor cocktail tablets and 1 mM PMSF. The resulting membranes were then stored at −80° C.
[^3H]-radioligand binding assay. After thawing, membrane homogenates were resuspended in the binding buffer (8.5 mM HEPES, pH 7.4, 1.3 mM CaCl2, 1.2 mM MgSO4, 118 mM NaCl, 4.7 mM KCl, 4 mM NaHCO3, 1.2 mM KH2PO4, 11 mM glucose) to a final assay concentration of 6.4 μg (OX1) or 1.4 μg (OX2) protein per well. Saturation isotherms were determined by the addition of various concentrations (0-30 nM) of [^3H]-4-(2,6-difluoro-4-methoxybenzyl)-2-(5,6-dimethoxypyridin-3-yl)-2H-1,2,4-benzothiadiazin-3(4H)-one 1,1-dioxide (Christopher et al, MedChemComm., 2015, 6, 947-955) in a total reaction volume of 250 μL for 90 min at rt. At the end of the incubation, membranes were filtered onto a 96-well GF/B filter pre-incubated with 0.5% polyethylenimine, with a Tomtec cell harvester and washed 5 times with 0.5 mL distilled water. Non-specific binding (NSB) was measured in the presence of 3.33 μM [4-(5-chloro-1,3-benzoxazol-2-yl)-7-methyl-1,4-diazepan-1-yl][5-methyl-2-(2H-1,2,3-triazol-2-yl)phenyl]methanone (Wertz et al, Angew. Chem. Int. Ed., 2011, 50, 11511-11515). Radioactivity on the filter was counted (1 min) on a Microbeta radiometric plate counter (Perkin Elmer) after addition of 50 μL of scintillation fluid (LabLogic: Part #SG-BXX-14). […] IC50 values were derived from the inhibition curve and the equilibrium dissociation constant (Ki) values were calculated using the Cheng-Prusoff equation.

Ki	Structure (SMILES)
> 251 nM	COc1ncc(C2CCc3c(F)cccc3N(Cc3c(F)cc(Br)cc3F)C2=O)cc1S(C)(=O)=O (racemic) [Example 19, 1-(4-bromo-2,6-difluorobenzyl)-6-fluoro-3-[6-methoxy-5-(methylsulfonyl)pyridin-3-yl]-1,3,4,5-tetrahydro-2H-1-benzazepin-2-one]
> 398 nM	COc1ncc(C2CCc3c(F)cccc3N(Cc3c(F)cc(Br)cc3F)C2=O)cc1C(C)(F)F (single isomer, unassigned) [Example 12, 1-(4-bromo-2,6-difluorobenzyl)-3-[5-(1,1-difluoroethyl)-6-methoxypyridin-3-yl]-6-fluoro-1,3,4,5-tetrahydro-2H-1-benzazepin-2-one]
> 158 nM	COc1ncc(C2CCc3c(F)cccc3N(Cc3cc(C#N)ccc3F)C2=O)cc1C(C)(F)F (single isomer, unassigned) [Example 13, 3-({3-[5-(1,1-difluoroethyl)-6-methoxypyridin-3-yl]-6-fluoro-2-oxo-2,3,4,5-tetrahydro-1H-1-benzazepin-1-yl}methyl)-4-fluorobenzonitrile]
> 631 nM	COc1ncc(C2CCc3c(F)cccc3N(Cc3c(F)cc(Cl)cc3F)C2=O)cc1S(C)(=O)=O (single isomer, unassigned) [Example 22, 1-(4-chloro-2,6-difluorobenzyl)-6-fluoro-3-[6-methoxy-5-(methylsulfonyl)pyridin-3-yl]-1,3,4,5-tetrahydro-2H-1-benzazepin-2-one]
> 126 nM	Cc1ncc(C2CCc3c(F)cccc3N(Cc3c(F)cc(Br)cc3F)C2=O)cc1C(C)(F)F (single isomer, unassigned) [Example 35, 1-(4-bromo-2,6-difluorobenzyl)-3-[5-(1,1-difluoroethyl)-6-methylpyridin-3-yl]-6-fluoro-1,3,4,5-tetrahydro-2H-1-benzazepin-2-one]
200 nM	Cc1ncc(C2CCc3c(F)cccc3N(Cc3c(F)cc(Br)cc3F)C2=O)cc1C(C)(F)F (single isomer, unassigned) [Example 36, 1-(4-bromo-2,6-difluorobenzyl)-3-[5-(1,1-difluoroethyl)-6-methylpyridin-3-yl]-6-fluoro-1,3,4,5-tetrahydro-2H-1-benzazepin-2-one]
> 316 nM	Cc1ncc(C2CCc3c(F)cccc3N(Cc3c(F)cc(Br)cc3F)C2=O)cc1S(C)(=O)=O (single isomer, unassigned) [Example 38, 1-(4-bromo-2,6-difluorobenzyl)-6-fluoro-3-[6-methyl-5-(methylsulfonyl)pyridin-3-yl]-1,3,4,5-tetrahydro-2H-1-benzazepin-2-one]
> 501 nM	Cc1ncc(C2CCc3c(F)cccc3N(Cc3c(F)cc(Br)cc3F)C2=O)cc1S(C)(=O)=O (single isomer, unassigned) [Example 39, 1-(4-bromo-2,6-difluorobenzyl)-6-fluoro-3-[6-methyl-5-(methylsulfonyl)pyridin-3-yl]-1,3,4,5-tetrahydro-2H-1-benzazepin-2-one]
200 nM	Cc1ccc(N2CCc3c(F)cccc3N(Cc3c(F)cc(Br)cc3F)C2=O)cc1C(C)(F)F [Example 1, 1-(4-bromo-2,6-difluorobenzyl)-3-[3-(1,1-difluoroethyl)-4-methylphenyl]-6-fluoro-1,3,4,5-tetrahydro-2H-1,3-benzodiazepin-2-one]
> 79.4 nM	COc1ncc(N2CCc3c(F)cccc3N(Cc3c(F)cc(Br)cc3F)C2=O)cc1C(C)(F)F [Example 3, 1-(4-bromo-2,6-difluorobenzyl)-3-[5-(1,1-difluoroethyl)-6-methoxypyridin-3-yl]-6-fluoro-1,3,4,5-tetrahydro-2H-1,3-benzodiazepin-2-one]
63.1 nM	COc1ccc(CN2C(=O)N(c3cnc(OC)c(C(C)(F)F)c3)CCc3c(F)cccc32)c(F)c1 [Example 4, 3-[5-(1,1-difluoroethyl)-6-methoxypyridin-3-yl]-6-fluoro-1-(2-fluoro-4-methoxybenzyl)-1,3,4,5-tetrahydro-2H-1,3-benzodiazepin-2-one]
